Test results reported in patent US12180187B2, “1-phenyl-5-azinylpyrazolyl-3-oxyalkyl acids and their use for controlling unwanted plant growth” (BAYER AKTIENGESELLSCHAFT, priority 2019, dated 2024).

Experiments:
AMARE [1] = assay: Post-emergence action against AMARE, 1.28 kg/ha; type: in vivo, Amaranthus retroflexus; conditions: dosage 1280 g/ha, visual rating about 3 weeks after treatment vs untreated controls (100% = plants died)
How it was run: (§1)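 Percent activity was scored visually ~3 wk post-spray relative to untreated plants. Treatment was post-emergence at the one-leaf stage using WP/EC in water with 0.5% additive (600 L/ha).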

LOLRI [2] = assay: Pre-emergence action against LOLRI, 1280 g/ha; type: in vivo, Lolium rigidum; conditions: visual scoring after about 3 weeks vs untreated controls, 100% = plants have died, 0% = like control plants
How it was run: (§2)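 Greenhouse pre-emergence test on sown seeds in sandy loam; soil-surface spray of formulated compound with 0.5% additive at 600 L/ha water. Scored visually, % vs untreated, after about 3 weeks.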

VERPE [3] = assay: Pre-emergence action at 320 g/ha against VERPE; type: in vivo, Veronica persica; conditions: visual scoring after about 3 weeks vs untreated controls
How it was run: (§3)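 Pre-emergence soil-surface spray: WP or EC formulation, aqueous, 0.5% additive, 600 l/ha water volume. Greenhouse growth about 3 weeks; visual percent effect relative to untreated pots.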

AMARE [4] = assay: Pre-emergence action against AMARE, 1280 g/ha; type: in vivo, Amaranthus retroflexus; conditions: scored visually after about 3 weeks vs untreated controls (100% = plants have died)
How it was run: as §2

STEME = assay: Pre-emergence action against STEME, 1280 g/ha; type: in vivo, Stellaria media; conditions: scored visually after about 3 weeks vs untreated controls (100% = plants have died)
How it was run: as §2

VERPE [5] = assay: Pre-emergence action against VERPE, 1280 g/ha; type: in vivo, Veronica persica; conditions: scored visually after about 3 weeks vs untreated controls (100% = plants have died)
How it was run: as §2

ABUTH [6] = assay: Pre-emergence action at 320 g/ha against ABUTH; type: in vivo, Abutilon theophrasti; conditions: greenhouse, scored visually after about 3 weeks vs untreated controls, 100% = plants have died, 0% = like control plants
Source text: b) Seeds of monocotyledonous and dicotyledonous weed plants and crop plants are placed in plastic or organic planting pots and covered with soil. The compounds of the invention, formulated in the form of wettable powders (WP) or as emulsion concentrates (EC), are then applied onto the surface of the covering soil as aqueous suspension or emulsion with addition of 0.5% additive at a water application rate of 600 l/ha (converted). After the treatment, the pots are placed in a greenhouse and kept under good growth conditions for the trial plants. After about 3 weeks, the effect of the preparations is scored visually in comparison with untreated controls as percentages. For example, 100% activity=the plants have died, 0% activity=like control plants. Tables 13 to 26 below show the effects of selected compounds of the general formula (I) on various harmful plants and at an application rate corresponding to 320 g/ha, which were obtained by the experimental procedure mentioned above.

DIGSA [7] = assay: Pre-emergence action at 320 g/ha against DIGSA; type: in vivo, Digitaria sanguinalis; conditions: visual scoring after about 3 weeks vs untreated controls
How it was run: as §3

ECHGC = assay: Pre-emergence action at 320 g/ha against ECHGC; type: in vivo, Echinochloa crus-galli; conditions: visual scoring after about 3 weeks vs untreated controls
How it was run: as §3

LOLRI [8] = assay: Pre-emergence action at 320 g/ha against LOLRI; type: in vivo, Lolium rigidum; conditions: visual scoring after about 3 weeks vs untreated controls
How it was run: as §3

ECHCG [9] = assay: Pre-emergence action against ECHCG, 1280 g/ha; type: in vivo, Echinochloa crus-galli; conditions: visual scoring after about 3 weeks vs untreated controls, 100% = plants have died, 0% = like control plants
How it was run: as §2

DIGSA [10] = assay: Post-emergence action against DIGSA, 1.28 kg/ha; type: in vivo, Digitaria sanguinalis; conditions: dosage 1280 g/ha, visual rating about 3 weeks after treatment vs untreated controls
How it was run: as §1

POAAN [11] = assay: Post-emergence action against POAAN, 1.28 kg/ha; type: in vivo, Poa annua; conditions: dosage 1280 g/ha, visual rating about 3 weeks after treatment vs untreated controls
How it was run: as §1

ABUTH [12] = assay: Post-emergence action against ABUTH, 1.28 kg/ha; type: in vivo, Abutilon theophrasti; conditions: dosage 1280 g/ha, visual rating about 3 weeks after treatment vs untreated controls (100% = plants died)
How it was run: as §1

VIOTR = assay: Pre-emergence action at 320 g/ha against VIOTR; type: in vivo, Viola tricolor; conditions: dosage 320 g/ha
How it was run: as §3

VERPE [13] = assay: Post-emergence action against VERPE, 1.28 kg/ha; type: in vivo, Veronica persica; conditions: dosage 1280 g/ha, visual rating about 3 weeks after treatment vs untreated controls (100% = plants died)
How it was run: as §1

LOLRI [14] = assay: Post-emergence action against LOLRI, 1.28 kg/ha; type: in vivo, Lolium rigidum; conditions: dosage 1280 g/ha, visual rating about 3 weeks after treatment vs untreated controls
How it was run: as §1

AVEFA = assay: Pre-emergence action at 320 g/ha against AVEFA; type: in vivo; conditions: visual scoring after about 3 weeks vs untreated controls
How it was run: as §3

SETVI [15] = assay: Pre-emergence action against SETVI, 1280 g/ha; type: in vivo, Setaria viridis; conditions: visual scoring after about 3 weeks vs untreated controls, 100% = plants have died, 0% = like control plants
How it was run: as §2

POAAN [16] = assay: Pre-emergence action against POAAN, 1280 g/ha; type: in vivo, Poa annua; conditions: visual scoring after about 3 weeks vs untreated controls, 100% = plants have died, 0% = like control plants
How it was run: as §2

MATIN [17] = assay: Pre-emergence action against MATIN, 1280 g/ha; type: in vivo, Tripleurospermum inodorum (Matricaria inodora); conditions: scored visually after about 3 weeks vs untreated controls (100% = plants have died)
How it was run: as §2

SETVI [18] = assay: Pre-emergence action at 320 g/ha against SETVI; type: in vivo, Setaria viridis; conditions: visual scoring after about 3 weeks vs untreated controls
How it was run: as §3

ALOMY [19] = assay: Pre-emergence action against ALOMY, 1280 g/ha; type: in vivo, Alopecurus myosuroides; conditions: visual scoring after about 3 weeks vs untreated controls, 100% = plants have died, 0% = like control plants
How it was run: as §2

ECHCG [20] = assay: Post-emergence action against ECHCG, 1.28 kg/ha; type: in vivo, Echinochloa crus-galli; conditions: dosage 1280 g/ha, visual rating about 3 weeks after treatment vs untreated controls
How it was run: as §1

POLCO = assay: Pre-emergence action at 320 g/ha against POLCO; type: in vivo, Fallopia convolvulus (Polygonum convolvulus); conditions: visual scoring after about 3 weeks vs untreated controls
How it was run: as §3

AMARE [21] = assay: Pre-emergence action at 320 g/ha against AMARE; type: in vivo, Amaranthus retroflexus; conditions: visual scoring after about 3 weeks vs untreated controls
How it was run: as §3

DIGSA [22] = assay: Pre-emergence action against DIGSA, 1280 g/ha; type: in vivo, Digitaria sanguinalis; conditions: visual scoring after about 3 weeks vs untreated controls, 100% = plants have died, 0% = like control plants
How it was run: as §2

ALOMY [23] = assay: Post-emergence action against ALOMY, 1.28 kg/ha; type: in vivo, Alopecurus myosuroides; conditions: dosage 1280 g/ha, visual rating about 3 weeks after treatment vs untreated controls
How it was run: as §1

ALOMY [24] = assay: Pre-emergence action at 320 g/ha against ALOMY; type: in vivo, Alopecurus myosuroides; conditions: scored visually after about 3 weeks vs untreated controls (100% = plants have died)
How it was run: as §3

MATIN [25] = assay: Pre-emergence action at 320 g/ha against MATIN; type: in vivo, Tripleurospermum inodorum (Matricaria inodora); conditions: visual scoring after about 3 weeks vs untreated controls
How it was run: as §3

PHBPU = assay: Pre-emergence action at 320 g/ha against PHBPU; type: in vivo; conditions: visual scoring after about 3 weeks vs untreated controls
How it was run: as §3

## CON(C)C(=O)COc1nn(-c2ccccc2F)c(-c2ccc(F)nc2)c1Br [Example X-019]
AMARE [1]
  Post-emergence action against AMARE: 90%
LOLRI [2]
  Pre-emergence action against LOLRI: 100%
VERPE [3]
  Pre-emergence action against VERPE in %: 100%
AMARE [4]
  Pre-emergence action against AMARE: 100%
STEME
  Pre-emergence action against STEME: 90%
VERPE [5]
  Pre-emergence action against VERPE: 90%
ABUTH [6]
  Pre-emergence action at 320 g/ha against ABUTH in %: 80%
DIGSA [7]
  Pre-emergence action against DIGSA in %: 100%
ECHGC
  Pre-emergence action against ECHGC in %: 100%
LOLRI [8]
  Pre-emergence action against LOLRI in %: 100%
ECHCG [9]
  Pre-emergence action against ECHCG: 100%
DIGSA [10]
  Post-emergence action against DIGSA: 90%
POAAN [11]
  Post-emergence action against POAAN: 100%
ABUTH [12]
  Post-emergence action against ABUTH: 90%
VIOTR
  Pre-emergence action against VIOTR in %: 100%
VERPE [13]
  Post-emergence action against VERPE: 90%
LOLRI [14]
  Post-emergence action against LOLRI: 90%
AVEFA
  Pre-emergence action against AVEFA in %: 80%
SETVI [15]
  Pre-emergence action against SETVI: 100%
POAAN [16]
  Pre-emergence action against POAAN: 100%
MATIN [17]
  Pre-emergence action against MATIN: 100%
SETVI [18]
  Pre-emergence action against SETVI in %: 100%
ALOMY [19]
  Pre-emergence action against ALOMY: 100%
ECHCG [20]
  Post-emergence action against ECHCG: 100%
POLCO
  Pre-emergence action against POLCO in %: 90%
AMARE [21]
  Pre-emergence action against AMARE in %: 100%
DIGSA [22]
  Pre-emergence action against DIGSA: 100%
ALOMY [23]
  Post-emergence action against ALOMY: 100%
ALOMY [24]
  Pre-emergence action at 320 g/ha against ALOMY in %: 100%
MATIN [25]
  Pre-emergence action against MATIN in %: 100%

## COC(=O)[C@@H](C)Oc1nn(-c2cc(F)ccc2F)c(-c2cncc(F)c2)c1I [VII-135]
VERPE [3]
  Pre-emergence action against VERPE in %: 100%
PHBPU
  Pre-emergence action against PHBPU in %: 90%
ABUTH [6]
  Pre-emergence action at 320 g/ha against ABUTH in %: 80%
ECHGC
  Pre-emergence action against ECHGC in %: 90%
LOLRI [8]
  Pre-emergence action against LOLRI in %: 100%
VIOTR
  Pre-emergence action against VIOTR in %: 100%
AVEFA
  Pre-emergence action against AVEFA in %: 90%
SETVI [18]
  Pre-emergence action against SETVI in %: 100%
POLCO
  Pre-emergence action against POLCO in %: 100%
AMARE [21]
  Pre-emergence action against AMARE in %: 100%
ALOMY [24]
  Pre-emergence action at 320 g/ha against ALOMY in %: 100%
MATIN [25]
  Pre-emergence action against MATIN in %: 90%

## CCOC(=O)[C@@H](C)Oc1nn(-c2cc(F)ccc2F)c(-c2cncc(F)c2)c1Br [VII-136]
VERPE [3]
  Pre-emergence action against VERPE in %: 100%
PHBPU
  Pre-emergence action against PHBPU in %: 90%
ABUTH [6]
  Pre-emergence action at 320 g/ha against ABUTH in %: 80%
ECHGC
  Pre-emergence action against ECHGC in %: 90%
LOLRI [8]
  Pre-emergence action against LOLRI in %: 90%
VIOTR
  Pre-emergence action against VIOTR in %: 100%
AVEFA
  Pre-emergence action against AVEFA in %: 90%
SETVI [18]
  Pre-emergence action against SETVI in %: 100%
POLCO
  Pre-emergence action against POLCO in %: 100%
AMARE [21]
  Pre-emergence action against AMARE in %: 100%
ALOMY [24]
  Pre-emergence action at 320 g/ha against ALOMY in %: 100%
MATIN [25]
  Pre-emergence action against MATIN in %: 90%
